Data set [1] deals with SARS-CoV-2 virus. The class given is cell-based.
Data set [2] relates to SARS-CoV-2 virus. The data set can be described thus: microbe, parasite or virus in culture. The class given is cell-based.
Data set [3] deals with SARS-CoV-2 virus. The experiment in a line: microbe, parasite or virus in culture. The following applies: Severe acute respiratory syndrome coronavirus 2, 72 h; Vero E6-WT cells, three days post-infection; read-out: EC50 for % inhibition of virus-induced CPE. It is filed as cell-based.
The test system of the next data set is SARS-CoV-2. The data set can be described thus: Cell-based antiviral assay (CPE, MTS) in Huh7 cells. The note with it: Huh7, 0.0062 μM concentration level, 4 days post-infection.
For the next data set, the system named is ABCB1. The note with it: low-nM dual-specificity ABCB1/ABCG2 inhibitor; cited from earlier work.
Where [4] appears, read: plate 3, 12 drugs, 250 nM, day 4, MLR model (FIG. 2).
[5] abbreviates: 250 nM, day 4 (FIG. 3, P3 TOX 250 nM).

Entries after “also recorded” stand apart in the source; their conditions may differ. Read-outs that look alike come from different tables or passages of the source.

As usually defined, the EC50 is the concentration that produces a half-maximal response.

On to `Cc1sc2c(c1C)C(c1ccc(Cl)cc1)=N[C@@H](CC(=O)OC(C)(C)C)c1nnc(C)n1-2` [JQ-1], for which the “enhancement of / effect on the REC combination” value (from here on “enhancement of / effect”) in the data set with SARS-CoV-2 virus [1] is on record as “none of the compounds synergized with the REC combination”.

For the compound `O=c1nc(NO)ccn1[C@@H]1O[C@H](CO)[C@@H](O)[C@H]1O` [EIDD-1931], the “enhancement of / effect” value in the data set on SARS-CoV-2 virus [1] is “had no effect on the REC combination”. In addition, the “substitution for remdesivir in the REC combination” value (from here on “substitution for remdesivir”) in the data set on SARS-CoV-2 virus [1] (focus testing (FIGS. 13-18)) is recorded as “failed to substitute for remdesivir”; in the data set with SARS-CoV-2 virus [1] (focus testing (FIGS. 13-18), listed as EIDD1931) it was “none were able to substitute for remdesivir”. The “individual antiviral efficacy against SARS-CoV2” value (from here on “individual antiviral efficacy”) in the data set with SARS-CoV-2 virus [1] (listed as EIDD1) is recorded as “does not exert an antiviral effect”; with SARS-CoV-2 virus [1] (listed as EIDD1931), “did not provide evidence for efficacy”.

With ivermectin, in the data set on SARS-CoV-2 virus [1], the “enhancement of / effect” value is listed as “unable to enhance the REC combination” and the “individual antiviral efficacy” value is “individual, but limited potency”.

As to `CN1CC[C@H](c2c(O)cc(O)c3c(=O)cc(-c4ccccc4Cl)oc23)[C@H](O)C1` [flavopiridol], in the data set with SARS-CoV-2 virus [1], the “interaction terms / synergism in antiviral response” value is on record as “did not interact significantly with the other three compounds”. Further, the “antiviral response (survival of the cells in response to the SARS-CoV-2 virus)” value in the data set with SARS-CoV-2 virus [1] (setting [4]) is given as “antiviral response was demonstrated”. Moreover, the “toxicology (cytotoxicity without virus)” value in the data set on VERO-EGFP cells is “cytotoxic”. Further, the “toxicology (cell viability without virus)” value with VERO-EGFP cells (setting [5]) was “highly toxic to the Vero-EGFP cells”; with VERO-EGFP cells (250 nM, day 4 (FIG. 3, P3 TOX 250 nM), listed as Flavopiridol), “individually caused cell death”.

As to `Cc1nc(-c2ccc(OCC(C)C)c(C#N)c2)sc1C(=O)O` [febuxostat], the “substitution / complementation for elacridar in the REC combination” value (from here on “substitution / complementation”) in the data set with SARS-CoV-2 virus [1] was “cannot substitute for elacridar; also recorded: failed to complement”.

As to `CC(C)c1nc(CN(C)C(=O)N[C@H](C(=O)N[C@@H](Cc2ccccc2)C[C@H](O)[C@H](Cc2ccccc2)NC(=O)OCc2cncs2)C(C)C)cs1` [ritonavir], the “individual antiviral efficacy” value with SARS-CoV-2 virus [1] is reported as “did not provide evidence for efficacy”.

Turning to `Cc1c(O)c(=O)ccn1C` [Deferiprone], the “complementing the REC combination or substituting for curcumin” value with SARS-CoV-2 virus [1] is “failed to complement the REC combination or substitute for curcumin”.

As for `OC(c1cc(C(F)(F)F)nc2c(C(F)(F)F)cccc12)C1CCCCN1` (centres unmarked) [mefloquine], in the data set with SARS-CoV-2 virus [1], the “enhancement of / effect” value was “all failed to enhance the REC combination” and the “individual antiviral efficacy” value is on record as “did not provide evidence for efficacy”.

Regarding `C=C1CC[C@H](O)C/C1=C/C=C1\CCC[C@]2(C)[C@@H]([C@H](C)CCCC(C)C)CC[C@@H]12` [vit-D3], the “enhancement of / effect” value in the data set with SARS-CoV-2 virus [1] was “failed to enhance the REC combination”.

Turning to `CC(=O)N[C@@H](CS)C(=O)O` [N-acetyl cysteine], the “complementing the REC combination or substituting for curcumin” value in the data set on SARS-CoV-2 virus [1] is recorded as “failed to complement the REC combination, or substitute for curcumin”.

On to `O=c1c(O)c(-c2ccc(O)c(O)c2)oc2cc(O)cc(O)c12` [Quercetin], for which, in the data set with SARS-CoV-2 virus [1], the “substitution / complementation” value is given as “failed to complement for elacridar”.

Take `[Zn]` [zinc]: the “enhancement of / effect” value in the data set on SARS-CoV-2 virus [1] is reported as “failed to enhance the REC combination”.

As for `Nc1ncnc2c([C@@H]3N[C@H](CO)[C@@H](O)[C@H]3O)c[nH]c12` [galidesivir], the “contribution factor to the effect of the REC combination” value in the data set on SARS-CoV-2 virus [1] was found to be 9.6.

Regarding `CC(C)[C@H](NC(=O)c1ccc2ccccc2n1)C(=O)N[C@@H](CC(=O)O)C(=O)COc1c(F)cccc1F` [Q-VD-Oph], the “enhancement of / effect” value in the data set with SARS-CoV-2 virus [1] is “none of the compounds synergized with the REC combination”.

On to `Cc1cccc(C)c1OCC(=O)N[C@@H](Cc1ccccc1)[C@@H](O)C[C@H](Cc1ccccc1)NC(=O)[C@H](C(C)C)N1CCCNC1=O` [lopinavir], for which the “individual antiviral efficacy” value in the data set on SARS-CoV-2 virus [1] is “did not provide evidence for efficacy”.

As for `N#C[C@@]1(c2ccc3c(N)ncnn23)O[C@H](CO)[C@@H](O)[C@H]1O` [GS441524], in the data set on SARS-CoV-2 virus [1], the “individual antiviral efficacy” value is “smaller, yet significant, antiviral effect” and the “substitution for remdesivir” value is reported as “did not replace remdesivir in the REC combination; also recorded: failed to substitute for remdesivir”. Moreover, the “criticality when optimized for maximal cytopathic effect” value with SARS-CoV-2 virus [1] (system optimization) is “failed to demonstrate criticality”.

In the case of `Cc1c(O)cccc1C(=O)N[C@@H](CSc1ccccc1)[C@H](O)CN1C[C@H]2CCCC[C@H]2C[C@H]1C(=O)NC(C)(C)C` [nelfinavir], the “enhancement of / effect” value in the data set on SARS-CoV-2 virus [1] is listed as “all failed to enhance the REC combination”.

As for `CCCCC1=NC2(CCCC2)C(=O)N1Cc1ccc(-c2ccccc2-c2nnn[nH]2)cc1` [irbesartan], the “individual antiviral efficacy” value with SARS-CoV-2 virus [1] is “did not provide evidence for efficacy”. Further, the “antiviral response (survival of the cells in response to the SARS-CoV-2 virus)” value in the data set with SARS-CoV-2 virus [1] (setting [4]) is recorded as “negatively impacted the survival of the cells”.

With Z-VAD, in the data set on SARS-CoV-2 virus [1], the “enhancement of / effect” value was “none of the compounds synergized with the REC combination”.

On to `CC(C)C(=O)OC[C@H]1O[C@@H](n2cc/c(=N\O)[nH]c2=O)[C@H](O)[C@@H]1O` [EIDD-2801], for which the “substitution for remdesivir” value with SARS-CoV-2 virus [1] is given as “failed as a substitute for remdesivir; also recorded: none were able to substitute for remdesivir”.

Take `Nc1nc(Nc2ccc3c(c2)CCC(N2CCCC2)CC3)nn1-c1cc2c(nn1)-c1ccccc1CCC2` (centres unmarked) [R428]: in the data set with SARS-CoV-2 virus [1], the “enhancement of / effect” value is “all failed to enhance the REC combination”.

Turning to `NC(=O)c1nc(F)c[nH]c1=O` [favipiravir], in the data set with SARS-CoV-2 virus [1], the “enhancement of / effect” value is “had no effect on the efficacy of the remdesivir, elacridar, and curcumin combination”; the “individual antiviral efficacy” value is on record as “failed to emerge as efficacious”; the “substitution for remdesivir” value is recorded as “none were able to substitute for remdesivir”.

`CC(N)C12CC3CC(CC(C3)C1)C2` (centres unmarked) [rimantadine]: in the data set with SARS-CoV-2 virus [1], the “individual antiviral efficacy” value was “did not provide evidence for efficacy”.

Consider `Cc1cc(C)c(Nc2ccnc(Nc3ccc(C#N)cc3)n2)c(C)c1` [dapivirine], for which, in the data set with SARS-CoV-2 virus [1], the “enhancement of / effect” value is listed as “all failed to enhance the REC combination”.

In the case of `CN(C)C(=O)COC(=O)Cc1ccc(OC(=O)c2ccc(NC(=N)N)cc2)cc1` [camostat], the “individual antiviral efficacy” value in the data set on SARS-CoV-2 virus [1] is recorded as “did not provide evidence for efficacy”. In addition, the “antiviral response (survival of the cells in response to the SARS-CoV-2 virus)” value in the data set with SARS-CoV-2 virus [1] (setting [4]) is “negatively impacted the survival of the cells”.

Consider `C[C@H]1CCC/C=C/[C@@H]2C[C@H](O)C[C@H]2[C@H](O)/C=C/C(=O)O1` [BrefA, Brefeldin A], for which the “toxicity (loss of fluorescence intensity, cell loss)” value in the data set with VERO-EGFP cells (twelve-drug plate, scanned 4 days later (FIG. 10)) is “cytotoxic and the cause of the observed cell loss”.

Turning to `COc1ccc2c3c([nH]c2c1)[C@H](CC(C)C)N1C(=O)[C@H](CCC(=O)OC(C)(C)C)NC(=O)[C@@H]1C3` [Ko143], the “substitution / complementation” value with SARS-CoV-2 virus [1] (focus testing, REC combination at 250 nM (FIGS. 11, 12, 17)) is “failed to complement for elacridar”; with SARS-CoV-2 virus [1] (focus testing, REC combination at 250 nM (FIGS. 11, 12, 17), listed as K0143) it was “cannot substitute for elacridar”.

With `CCOC/C=C/c1ccc(-c2nc(-c3ccc(NC(C)C)cc3)c(-c3ccc(NC(C)C)cc3)[nH]2)cc1` [ONT-093], in the data set on SARS-CoV-2 virus [1], the “substitution / complementation” value is reported as “failed to complement”.

As for `COc1cc2c(cc1OC)CN(CCc1ccc(NC(=O)c3cccc4c(=O)c5cccc(OC)c5[nH]c34)cc1)CC2` [elacridar], the EC50 in the data set on SARS-CoV-2 virus [2] (Severe acute respiratory syndrome coronavirus 2, 72 h, Vero E6-GFP cells, three days post-infection, read-out: EC50 for % inhibition of virus-induced CPE) was found to be 2160 ± 500 nM; in the data set with SARS-CoV-2 virus [3], 1070 ± 500 nM. Also, in the data set with SARS-CoV-2 virus [1] (setting [4]), the “antiviral response (survival of the cells in response to the SARS-CoV-2 virus)” value was “antiviral response was demonstrated”. Further, in the data set on VERO-EGFP cells (setting [5]), the “toxicology (cell viability without virus)” value was “none of the three drugs in the triad of remdesivir, elacridar, and curcumin negatively impacted cell viability”.

As for `CCN(CCO)CCCC(C)Nc1ccnc2cc(Cl)ccc12` (centres unmarked) [hydroxychloroquine], in the data set with SARS-CoV-2 virus [1], the “enhancement of / effect” value is “all failed to enhance the REC combination” and the “individual antiviral efficacy” value was “failed to emerge as efficacious”.

Take `CCC(CC)COC(=O)[C@H](C)N[P@](=O)(OC[C@H]1O[C@@](C#N)(c2ccc3c(N)ncnn23)[C@H](O)[C@@H]1O)Oc1ccccc1` [remdesivir]: the “inhibition of virus-induced cytopathic effect” value in the data set with SARS-CoV-2 virus [2] (Vero E6-GFP, 1.11 μM) is recorded as 50-60%. Also, the “antiviral response (survival of the cells in response to the SARS-CoV-2 virus)” value in the data set on SARS-CoV-2 virus [1] is “antiviral response was demonstrated”. Also, in the data set on VERO-EGFP cells, the “toxicology (cell viability without virus)” value is “none of the three drugs in the triad of remdesivir, elacridar, and curcumin negatively impacted cell viability”; the “toxicology (cytotoxicity without virus)” value is “no cytotoxicity”. Also, the “cytopathic effect of the virus at one concentration” value in the data set with SARS-CoV-2 was “minimally protected”.

For `COc1cc2c(cc1OC)CN(CCc1ccc(NC(=O)c3cc(OC)c(OC)cc3NC(=O)c3cnc4ccccc4c3)cc1)CC2` [tariquidar], the ABCB1 inhibitory potency in the data set with ABCB1 was 5.1 nM. In addition, in the data set on SARS-CoV-2 virus [1], the “antiviral potency in synergizing with remdesivir (interaction terms)” value was “equally potent in synergizing with remdesivir” and the “substitution / complementation” value is “can be substituted for elacridar”.

These data come from US20230277524A1, “COMBINATION THERAPY FOR TREATMENT OF VIRAL INFECTIONS” (priority 2020, published 2023).
